Data published in the NIST ThermoML archive (doi:10.1016/j.tca.2006.04.001).

Conditions: Liquid, Pycnometric method

CCCCCCCCCCCCCCCCCCC [nonadecane]
Conditions | specific volume [m3/kg]
305.45 K | 0.0013
307.55 K | 0.001303
309.55 K | 0.001304
311.65 K | 0.001304
313.65 K | 0.001307
315.75 K | 0.001309
317.75 K | 0.001311
319.85 K | 0.001313
321.95 K | 0.001316
323.95 K | 0.001319
326.05 K | 0.001322
328.05 K | 0.001321
330.15 K | 0.001324
332.25 K | 0.001327
334.25 K | 0.001329
336.35 K | 0.001331
338.35 K | 0.001335
340.45 K | 0.001337
342.55 K | 0.001339
344.55 K | 0.001338
346.65 K | 0.001344
348.65 K | 0.001345
350.75 K | 0.001346
352.85 K | 0.001348
354.85 K | 0.001353
356.95 K | 0.001355
358.95 K | 0.001357
361.05 K | 0.001359
363.15 K | 0.001362
365.15 K | 0.001365
367.25 K | 0.001368
369.25 K | 0.00137
371.35 K | 0.001373
373.45 K | 0.001374
375.45 K | 0.001376
377.55 K | 0.001379
379.55 K | 0.001382
381.65 K | 0.001385
383.75 K | 0.001389
385.75 K | 0.001391
387.85 K | 0.001394
389.85 K | 0.001396
391.95 K | 0.001401
393.95 K | 0.001404
396.05 K | 0.001405
398.15 K | 0.001405
400.15 K | 0.00141
402.25 K | 0.001412
404.25 K | 0.001415
406.35 K | 0.001418
408.45 K | 0.001422
410.45 K | 0.001426
412.55 K | 0.001429
414.55 K | 0.001434
416.65 K | 0.001436
418.75 K | 0.001439
420.75 K | 0.001439
422.85 K | 0.001442
424.85 K | 0.001447
426.95 K | 0.00145
429.05 K | 0.001452
431.05 K | 0.001456
433.15 K | 0.001457
435.15 K | 0.001461
437.25 K | 0.001464
439.35 K | 0.001466
441.35 K | 0.001469
443.45 K | 0.001475
445.45 K | 0.001479
447.55 K | 0.001481
449.65 K | 0.001485
451.65 K | 0.001485
453.75 K | 0.001492
455.75 K | 0.001495
457.85 K | 0.001498
459.95 K | 0.001504
461.95 K | 0.001506
464.05 K | 0.001508
466.05 K | 0.001514
468.15 K | 0.001514
470.25 K | 0.00152
472.25 K | 0.001523
474.35 K | 0.001527
476.35 K | 0.00153
478.45 K | 0.001533
480.45 K | 0.001536
482.55 K | 0.001543
484.65 K | 0.001546
486.65 K | 0.001549
488.75 K | 0.001549
490.75 K | 0.001557
492.85 K | 0.00156
494.95 K | 0.001563
496.95 K | 0.001566
499.05 K | 0.001569
501.05 K | 0.001575
503.15 K | 0.001578
505.25 K | 0.001582
507.25 K | 0.001586
509.35 K | 0.001592
511.35 K | 0.001594
513.45 K | 0.001599
515.55 K | 0.001604
517.55 K | 0.001609
519.65 K | 0.001609
521.65 K | 0.001615
523.75 K | 0.00162
525.85 K | 0.001625
531.35 K | 0.001634
533.25 K | 0.001639
535.25 K | 0.001641
537.15 K | 0.001646
539.15 K | 0.001649
541.05 K | 0.001653
543.05 K | 0.001659
544.95 K | 0.001663
546.85 K | 0.001667
548.85 K | 0.00167
550.75 K | 0.001676
552.75 K | 0.00168
554.65 K | 0.001683
556.65 K | 0.001687
558.55 K | 0.001692
560.45 K | 0.001697
562.45 K | 0.001702
564.35 K | 0.001707
566.35 K | 0.001711
568.25 K | 0.001717
570.25 K | 0.001722
572.15 K | 0.001725
574.05 K | 0.001732
576.05 K | 0.001737

CCCCCCCCCCCCCCCCCC [octadecane]
Conditions | specific volume [m3/kg]
299.25 K | 0.00129
301.35 K | 0.001292
303.35 K | 0.001295
305.45 K | 0.001295
307.55 K | 0.001298
309.55 K | 0.001301
311.65 K | 0.001301
313.65 K | 0.001304
315.75 K | 0.001308
317.75 K | 0.001311
318.65 K | 0.001318
319.85 K | 0.001317
320.65 K | 0.001319
323.55 K | 0.001323
325.45 K | 0.001324
328.35 K | 0.00133
330.35 K | 0.001331
333.25 K | 0.001335
335.15 K | 0.001337
338.05 K | 0.001341
341.05 K | 0.001345
342.95 K | 0.001346
345.85 K | 0.00135
347.85 K | 0.001354
350.75 K | 0.001357
352.65 K | 0.00136
355.55 K | 0.001363
357.55 K | 0.001364
360.45 K | 0.001368
362.35 K | 0.001372
365.25 K | 0.001375
367.25 K | 0.001377
370.15 K | 0.001382
372.05 K | 0.001385
374.95 K | 0.001388
376.95 K | 0.001391
379.85 K | 0.001395
381.75 K | 0.001398
384.75 K | 0.001402
386.65 K | 0.001404
389.55 K | 0.001409
391.55 K | 0.001411
394.45 K | 0.001416
396.35 K | 0.001419
399.25 K | 0.001423
401.25 K | 0.001425
404.15 K | 0.001429
406.05 K | 0.001433
408.95 K | 0.001437
410.95 K | 0.00144
413.85 K | 0.001444
415.75 K | 0.001448
418.65 K | 0.001451
420.65 K | 0.001455
423.55 K | 0.001459
425.45 K | 0.001456
428.45 K | 0.001464
430.35 K | 0.001464
433.25 K | 0.001474
435.25 K | 0.001471
438.15 K | 0.001482
440.05 K | 0.001478
442.95 K | 0.001488
444.95 K | 0.001485
447.85 K | 0.001496
449.75 K | 0.001498
452.65 K | 0.001502
454.65 K | 0.001506
457.55 K | 0.001512
459.45 K | 0.001513
462.45 K | 0.00152
464.35 K | 0.001522
467.25 K | 0.00153
469.15 K | 0.001528
472.15 K | 0.001538
474.05 K | 0.001535
476.95 K | 0.001546
478.95 K | 0.001545
481.85 K | 0.001557
483.75 K | 0.001554
486.65 K | 0.001564
488.65 K | 0.001562
491.55 K | 0.001573
493.45 K | 0.001571
496.35 K | 0.001577
498.35 K | 0.001582
500.25 K | 0.001587
503.15 K | 0.001592
505.15 K | 0.001595
508.05 K | 0.001602
510.95 K | 0.001609
512.95 K | 0.00161
515.85 K | 0.001619
518.75 K | 0.001623
520.65 K | 0.001628
523.55 K | 0.001634
525.55 K | 0.001639
527.45 K | 0.001644
530.35 K | 0.001649
533.25 K | 0.001657
535.25 K | 0.001659
538.15 K | 0.001666
541.05 K | 0.001675
543.05 K | 0.001677
545.95 K | 0.001685
548.85 K | 0.001691
550.75 K | 0.001697
553.65 K | 0.001704
555.65 K | 0.001706
558.55 K | 0.001714
560.45 K | 0.00172
563.45 K | 0.00173
566.35 K | 0.001737
568.25 K | 0.001741
